Like-named read-outs stand apart in the source and are kept apart here.
Legend:
primary human T-cells [1] = system: primary human T-cells
Method: As readouts for T-cell activation, IL2 secretion after 24 hours and proliferation after 5 days was measured. Increases in IL2 secretion and proliferation upon compound treatment were assessed as the % of the maximum of reference compound A1. […] As a counter screen and to make sure that no unwanted TCR-independent activation was triggered, PBS conditions were run for all compounds.
For coating of plates, PBS++ with PBS−− or PBS++ with CD3 antibody (concentration depending on donor and determined by CD3 titrations) was added 100 μl/well to Poly-D Lysine coated 96-well plates. Plates were sealed and incubated at room temperature for 3 hours on a table-top rocking platform. After incubation, plates were washed once with PBS−− and filled with 40 μl/well culture medium only. Compounds were then added (see next section) to medium only plates. After 3 hours of culturing the T-cells, cells were filtered through a cell strainer (Miltenyi Biotech, #130-041-407), counted again and concentration was adjusted to 1.25 Mio/ml.
Cells were then seeded 80 μl/well to the 40 μl/well including dispensed compounds according to plate layout. By adding cells, compounds were further diluted 1:3, and resulting in 100 k cells/120 μl/well. After 24 hours 40 μl of supernatant was collected carefully from the top while not disturbing the cells and transferred into a round bottom 96 well plate. Collected and frozen supernatant was used for detection of IL2 using the IL-2 Human ProQuantum Immunoassay Kit (Invitrogen) or using the Human IL-2 ELISA Kit (Thermo Fisher).
Compounds were added in a 5 or 6pt dose response with the Tecan D300e Digital Dispenser, all conditions 3 times more concentrated than the end-concentration, since cells are added afterwards (80 μl cells to 40 μl prepared medium with treatment). The DR was starting at 20 μM or 10 μM final top concentration and a dilution factor of 3.333. The positive control was the reference compound A1 that was added in a dose response as well, additionally to 3 wells of only 20 μM representing the positive stimulator control. All wells were normalized with DMSO to a final concentration of 0.6% (0.2% end-concentration).
The immunoassay is done following the manufacturer's manual (Invitrogen, #A35603). Additional information: For the immunoassay, MicroAmp™ EnduraPlate™ Optical 384-Well plates are used. Frozen supernatant is thawed and centrifuged for 5 minutes at 1000×g, both steps at 4° C. After centrifugation, required sample amount is taken from the top, and in a separate LightCycler V-bottom plate (working plate) diluted with assay dilution buffer, dilution factor depending on the PBS or CD3 condition but at least 1:3. IL-2 standard and blanks are prepared in the same V-bottom plate, standard with a range of 0.0128-5000 pg/ml (extended version). After preparation, 5 μl of sample dilutions or standard/blanks are transferred to the optical 384-well plate (assay plate) and the 10 μl reaction protocol is being followed. For measurement, the QuantStudio 12K Flex system is used.
ELISA is done following the manufacturer's manual (Thermo Fisher Scientific, #88-7025-88). Additional information: For the ELISA Nunc MaxiSorp 96 well plates are used. Frozen supernatant is thawed and centrifuged for 5 minutes at 1000×g, both steps at 4° C. After that, required sample amount is taken from the top, and in a separate V-bottom plate diluted with ELISA diluent, dilution factor depending on the PBS or CD3 condition. IL-2 standard and blanks are prepared in the same V-bottom plate. After preparation, 50 μl of sample dilutions and 100 μl of standard or blanks are transferred to the Nunc plates.
CD3 and PBS plates were analysed separately in Genedata Screener using Roche Normalization PCT_POS_CTRL with DMSO set as Neutral Control and 20 μM of the reference compound A1 set as Stimulator Control/100%.
For CD3 conditions EC50 and Emax of the fitted sigmoidal curve were reported.

primary human T-cells [2] = assay: Proliferation assay after 5 days (CellTiter-Glo, CD3 stimulation; PBS counter screen); format: cell-based; details: CD3 stimulation; for Emax: read-out: Emax proliferation (% activation); for EC50: primary human T-cells, CellTiter-Glo after 5 days, EC50 of fitted sigmoidal curve, read-out: Tcell Proliferation CD3 EC50
Outline: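 Luminescent ATP detection (CellTiter-Glo 2.0) quantified cell number 5 days after compounds went onto medium-only plates. Wells showing visible toxicity or precipitate were noted beforehand, and compounds that stimulated unstimulated cells or lowered viability were flagged.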

[3] = Homo sapiens, T-cell, 120 h, 5 days, normalized to reference compound A1 as stimulator control = 100%, DMSO neutral control

Row | Compound | EC50 (primary human T-cells [1]) [nM] | Emax (primary human T-cells [2]; [3]) [%] | EC50 (primary human T-cells [2]; Homo sapiens, T-cell, 120 h) [nM] | Emax proliferation (% activation) (primary human T-cells [2]; 5 days, normalized to reference compound A1 as stimulator control = 100%, DMSO neutral control) | EC50 (primary human T-cells [2]) [nM]
1 | CC(C)(C)c1nnc(-c2ccc3c(c2)N(Cc2ccc(Oc4ccc(F)cc4)cc2)C(=O)[C@@H](N)CS3(=O)=O)o1 [Example 439, (3R)-3-amino-7-(5-tert-butyl-1,3,4-oxadiazol-2-yl)-5-[[4-(4-fluorophenoxy)phenyl]methyl]-1,1-dioxo-2,3-dihydro-1λ^6,5-benzothiazepin-4-one] | 2100 | 138 | 299 |  | 
2 | CC(C)(C)c1nnc(-c2ccc3c(c2)N(Cc2ccc(Oc4ccc(C(F)(F)F)cn4)cc2)C(=O)[C@@H](N)CS3(=O)=O)o1 [Example 440, (3R)-3-amino-7-(5-tert-butyl-1,3,4-oxadiazol-2-yl)-1,1-dioxo-5-[[4-[[5-(trifluoromethyl)-2-pyridyl]oxy]phenyl]methyl]-2,3-dihydro-1λ^6,5-benzothiazepin-4-one] | 2510 | 110 | 2520 |  | 
3 | CC#CCOc1ccc(CN2C(=O)[C@@H](N)CS(=O)(=O)c3ccc(-c4nnc(C(C)(C)C)o4)cc32)cc1 [Example 441, (3R)-3-amino-7-(5-tert-butyl-1,3,4-oxadiazol-2-yl)-5-[(4-but-2-ynoxyphenyl)methyl]-1,1-dioxo-2,3-dihydro-1λ^6,5-benzothiazepin-4-one] | 3850 | 128 | 1020 |  | 
4 | COC(=O)N1CC2CC(c3nnc(-c4ccc5c(c4)N(Cc4ccc(OC(F)(F)C(F)F)cc4)C(=O)[C@@H](N)CS5(=O)=O)o3)(C2)C1 [Example 443, Methyl 1-[5-[(3R)-3-amino-1,1,4-trioxo-5-[[4-(1,1,2,2-tetrafluoroethoxy)phenyl]methyl]-2,3-dihydro-1λ^6,5-benzothiazepin-7-yl]-1,3,4-oxadiazol-2-yl]-3-azabicyclo[3.1.1]heptane-3-carboxylate] | > 10000 | 97 | 3850 |  | 
5 | CC(C)(C)c1nnc(-c2ccc3c(c2)N(Cc2ccc(N4CCN(C5CC5)CC4)cc2)C(=O)[C@@H](N)CS3(=O)=O)o1 [Example 445, (3R)-3-amino-7-(5-tert-butyl-1,3,4-oxadiazol-2-yl)-5-[[4-(4-cyclopropylpiperazin-1-yl)phenyl]methyl]-1,1-dioxo-2,3-dihydro-1λ^6,5-benzothiazepin-4-one] | 9560 | 88 | 4250 |  | 
6 | CC(C)(C)c1nnc(-c2ccc3c(c2)N(Cc2ccc(N4CCOCC4)cc2)C(=O)[C@@H](N)CS3(=O)=O)o1 [Example 446, (3R)-3-amino-7-(5-tert-butyl-1,3,4-oxadiazol-2-yl)-5-[(4-morpholinophenyl)methyl]-1,1-dioxo-2,3-dihydro-1λ^6,5-benzothiazepin-4-one] | 7570 | 51 | 9900 |  | 
7 | COC1CCN(c2ccc(CN3C(=O)[C@@H](N)CS(=O)(=O)c4ccc(-c5nnc(C(C)(C)C)o5)cc43)cc2)CC1 [Example 447, (3R)-3-amino-7-(5-tert-butyl-1,3,4-oxadiazol-2-yl)-5-[[4-(4-methoxy-1-piperidyl)phenyl]methyl]-1,1-dioxo-2,3-dihydro-1λ^6,5-benzothiazepin-4-one] | 2540 | 113 | > 10000 |  | 
8 | CC(C)(C)c1nnc(-c2ccc3c(c2)N(Cc2ccc(N4CCCC4)cc2)C(=O)[C@@H](N)CS3(=O)=O)o1 [Example 448, (3R)-3-amino-7-(5-tert-butyl-1,3,4-oxadiazol-2-yl)-1,1-dioxo-5-[(4-pyrrolidin-1-ylphenyl)methyl]-2,3-dihydro-1λ^6.5-benzothiazepin-4-one] | 4620 | 94 | 1960 |  | 
9 | C#CCC(C)(C)c1nnc(-c2cc3c(cc2F)S(=O)(=O)C[C@H](N)C(=O)N3Cc2ccc(OC(F)(F)F)cc2)o1 [Example 450, (3R)-3-amino-7-[5-(1,1-dimethylbut-3-ynyl)-1,3,4-oxadiazol-2-yl]-8-fluoro-1,1-dioxo-5-[[4-(trifluoromethoxy)phenyl]methyl]-2,3-dihydro-1λ^6,5-benzothiazepin-4-one] | 73.1 | 114 | 71.5 |  | 
10 | CC(C)(C)c1nnc(-c2cc3c(cc2F)[S+]([O-])C[C@H](N)C(=O)N3Cc2ccc(OC(F)(F)F)cc2)o1 (stereo partly drawn) [Example 453] | 178 |  |  | 136 | 444
11 | CCN1CCCC(Nc2nnc(-c3cc4c(cc3F)S(=O)(=O)C[C@H](N)C(=O)N4Cc3ccc(Cl)cc3)o2)C1 (stereo partly drawn) [Example 457, (3R)-3-amino-5-[(4-chlorophenyl)methyl]-7-[5-[(1-ethyl-3-piperidyl)amino]-1,3,4-oxadiazol-2-yl]-8-fluoro-1,1-dioxo-2,3-dihydro-1λ^6,5-benzothiazepin-4-one] | 4880 | 50 | 1140 |  | 
12 | N[C@H]1CS(=O)(=O)c2cc(F)c(-c3nnc(NC4CCN(C5CC5)CC4)o3)cc2N(Cc2ccc(Cl)cc2)C1=O [Example 460, (3R)-3-amino-5-[(4-chlorophenyl)methyl]-7-[5-[(1-cyclopropyl-4-piperidyl)amino]-1,3,4-oxadiazol-2-yl]-8-fluoro-1,1-dioxo-2,3-dihydro-1λ^6,5-benzothiazepin-4-one] | 509 | 55 | 5700 |  | 
13 | CN(C)c1nnc(-c2cc3c(cc2F)S(=O)(=O)C[C@H](N)C(=O)N3Cc2ccc(Cl)cc2)o1 [Example 465, (3R)-3-amino-5-[(4-chlorophenyl)methyl]-7-[5-(dimethylamino)-1,3,4-oxadiazol-2-yl]-8-fluoro-1,1-dioxo-2,3-dihydro-1λ^6,5-benzothiazepin-4-one] | 1170 | 100 | 171 |  | 
14 | NC1CN(c2nnc(-c3cc4c(cc3F)S(=O)(=O)C[C@H](N)C(=O)N4Cc3ccc(Cl)cc3)o2)CCC1(F)F (stereo partly drawn) [Example 467, (3R)-3-amino-7-[5-(3-amino-4,4-difluoro-1-piperidyl)-1,3,4-oxadiazol-2-yl]-5-[(4-chlorophenyl)methyl]-8-fluoro-1,1-dioxo-2,3-dihydro-1λ^6,5-benzothiazepin-4-one] | 474 | 102 | 880 |  | 
15 | CC1(C#N)CCN(c2nnc(-c3cc4c(cc3F)S(=O)(=O)C[C@H](N)C(=O)N4Cc3ccc(Cl)cc3)o2)CC1 [Example 468, 4-methyl-1-[5-[(3R)-3-amino-5-[(4-chlorophenyl)methyl]-8-fluoro-1,1,4-trioxo-2,3-dihydro-1λ^6,5-benzothiazepin-7-yl]-1,3,4-oxadiazol-2-yl]piperidine-4-carbonitrile] | 3780 | 127 | 2670 |  | 
16 | N[C@H]1CS(=O)(=O)c2cc(F)c(-c3nnc(N4C[C@H]5C[C@@H](C4)C5(F)F)o3)cc2N(Cc2ccc(Cl)cc2)C1=O [Example 469, (3R)-3-amino-5-[(4-chlorophenyl)methyl]-8-fluoro-1,1-dioxo-7-[5-[(1R,5S)-6,6-difluoro-3-azabicyclo[3.1.1]heptan-3-yl]-1,3,4-oxadiazol-2-yl]-2,3-dihydro-1λ^6,5-benzothiazepin-4-one] | 2550 | 105 | 170 |  | 
17 | CN1CCN(c2nnc(-c3cc4c(cc3F)S(=O)(=O)C[C@H](N)C(=O)N4Cc3ccc(Cl)cc3)o2)CC1 [Example 470, (3R)-3-amino-5-[(4-chlorophenyl)methyl]-8-fluoro-7-[5-(4-methylpiperazin-1-yl)-1,3,4-oxadiazol-2-yl]-1,1-dioxo-2,3-dihydro-1λ^6,5-benzothiazepin-4-one] | 551 | 101 | 1410 |  | 

Source: patent US20240368150A1 (Hoffmann-La Roche Inc., priority 2021, published 2024)
